This is an account of results in paper PMC4527344 (Tetrahedron letters, 2015).

The experiment deals with M. tuberculosis.

Each structure is given as a SMILES string.

`CCOC(=O)CSc1nc(N)c2c3c(sc2n1)CC(C(C)(C)C)CC3` (stereo not shown) [CD117]: the CD117-resistant mutants obtained result is “unable to obtain CD117-resistant mutants”.
